Measurements reported in patent publication US8466143B2, “Azepine derivatives as pharmaceutical agents” (Exelixis, Inc., priority 2003, dated 2013).

Biological target: T1, full length human farnesoid X receptor (Homo sapiens, UniProt Q96RI1)
T1 construct: CMX-farnesoid X receptor (full length human farnesoid X receptor); expressed in transfected cells; host or cells: CV-1 African Green Monkey Kidney cells
T1 sequence (Q96RI1 1-472 isoform Q96RI1-2): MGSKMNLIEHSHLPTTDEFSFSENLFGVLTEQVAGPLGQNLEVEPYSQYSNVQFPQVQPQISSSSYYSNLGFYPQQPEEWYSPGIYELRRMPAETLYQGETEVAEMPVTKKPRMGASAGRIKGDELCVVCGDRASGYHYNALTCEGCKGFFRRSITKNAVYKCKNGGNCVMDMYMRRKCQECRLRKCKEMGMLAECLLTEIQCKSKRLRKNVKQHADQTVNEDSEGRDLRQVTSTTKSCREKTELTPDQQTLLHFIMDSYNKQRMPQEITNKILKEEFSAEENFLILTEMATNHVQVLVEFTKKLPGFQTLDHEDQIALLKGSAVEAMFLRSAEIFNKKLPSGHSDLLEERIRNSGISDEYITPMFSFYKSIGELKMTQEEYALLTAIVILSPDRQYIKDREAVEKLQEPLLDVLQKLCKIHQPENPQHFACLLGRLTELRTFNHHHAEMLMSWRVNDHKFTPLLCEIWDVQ
T1 sequence (P19793 1-462 partner): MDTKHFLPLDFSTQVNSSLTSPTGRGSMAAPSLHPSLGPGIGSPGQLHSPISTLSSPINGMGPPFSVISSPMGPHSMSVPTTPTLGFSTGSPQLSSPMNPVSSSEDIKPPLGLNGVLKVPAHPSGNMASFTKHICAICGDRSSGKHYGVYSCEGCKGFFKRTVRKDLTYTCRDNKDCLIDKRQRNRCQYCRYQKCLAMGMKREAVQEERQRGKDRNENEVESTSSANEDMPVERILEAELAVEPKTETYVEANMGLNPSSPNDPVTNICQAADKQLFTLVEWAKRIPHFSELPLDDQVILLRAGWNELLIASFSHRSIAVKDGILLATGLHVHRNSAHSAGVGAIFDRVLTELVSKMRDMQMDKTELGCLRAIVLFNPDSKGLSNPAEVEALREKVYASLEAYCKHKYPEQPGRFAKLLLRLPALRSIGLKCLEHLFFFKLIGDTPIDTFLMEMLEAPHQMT
Assay: farnesoid X receptor/ECREx7 co-transfection assay
Format: cell-based
Conditions: for EC50: CV-1 cells, agonist mode
Experimental: The basic co-transfection protocol for measuring the farnesoid X receptor activity is as follows. CV-1 African Green Monkey Kidney cells were plated 24 hours before transfection to achieve approximately 70-80 percent confluency. Cells were transfected with the following expression vectors, CMX-farnesoid X receptor (full length human farnesoid X receptor), CMX-RXRα (full length human RXR), Luc12 ((ECREx7-Tk-Luciferase) luciferase reporter gene construct. (See WO 00/76523, Venkateswaran et al., (2000) J. Biol. Chem. 275 14700-14707). A CMX-β-Galactosidase expression vector was used as a transfection control. The transfection reagent used was DOTAP (Boehringer Mannheim). Cells were incubated with the DOTAP/DNA mixture for 5 hours after which the cells were harvested and plated onto either 96 well or 384 well plates containing the appropriate concentration of test compound. The assay was allowed to continue for an additional 18-20 hours, after which the cells were lysed, with lysis buffer (1% triton X 100, 10% glycerol, 5 mM Dithiothreitol, 1 mM EGTA, 25 mM Tricine, pH 7.8) and the luciferase activity measured in the presence of Luciferase assay buffer (0.73 mM ATP, 22.3 mM Tricine, 0.11 mM EGTA, 0.55 mM Luciferin, 0.15 mM Coenzyme A, 0.5 mM HEPES, 10 mM Magnesium sulphate) on a standard luminomter plate reader (PE Biosystems, NorthStar Reader), using recommended operating instructions and conditions.
Both the farnesoid X receptor/ECREx7 co-transfection assay (Example 10) and the TR-FRET assay (Example 9) can be used to establish the EC50/IC50 values for potency and percent activity or inhibition for efficacy. Efficacy defines the activity of a compound relative to a high control (chenodeoxycholic acid, CDCA) or a low control (DMSO/vehicle). The dose response curves are generated from an 8 point curve with concentrations differing by ½ LOG units. Each point represents the average of 4 wells of data from a 384 well plate. The curve for the data is generated by using the equation: Y=Bottom+(Top-Bottom)/(1+10^((Log EC50−X)*HillSlope))
The EC50/IC50 is therefore defined as the concentration at which an agonist or antagonist elicits a response that is half way between the Top (maximum) and Bottom (baseline) values. The EC50/IC50 values represented are the averages of at least 3 independent experiments. The determination of the relative efficacy or % control for an agonist is by comparison to the maximum response achieved by chenodeoxycholic acid that is measured individually in each dose response experiment.
For the antagonist assay, CDCA is added to each well of a 384 well plate to elicit a response. The % inhibition for each antagonist is therefore a measurement of the inhibition of the activity of CDCA. In this example, 100% inhibition would indicate that the activity of CDCA has been reduced to baseline levels, defined as the activity of the assay in the presence of DMSO only.

EC50 | efficacy (relative to maximum response of chenodeoxycholic acid (CDCA)) | Structure (SMILES)
≤ 100 nM |  | CCOC(=O)C1CN(C(=O)c2ccc(F)cc2)CC(C)(C)c2c1[nH]c1c2CCCC1 (centres unmarked) [3-(4-Fluoro-benzoyl)-1,1-dimethyl-1,2,3,4,5,6,7,8,9,10-decahydro-azepino[4,5-b]indole-5-carboxylic acid ethyl ester]
≤ 100 nM |  | CCOC(=O)C1=CN(C(=O)c2ccc(F)cc2)CC(C)(C)c2c1[nH]c1c2CCCC1 [3-(4-Fluoro-benzoyl)-1,1-dimethyl-1,2,3,6,7,8,9,10-octahydro-azepino[4,5-b]indole-5-carboxylic acid ethyl ester]
≤ 1000 nM | greater than 100% | CCOC(=O)C1=CN(C(=O)c2ccc(F)cc2)CCc2c1[nH]c1c2CCCC1 [3-(4-Fluoro-benzoyl)-1,2,3,6,7,8,9,10-octahydro-azepino[4,5-b]indole-5-carboxylic acid ethyl ester]
≤ 100 nM |  | CCOC(=O)c1cc2c(n1C)C(C(=O)OC(C)C)=CN(C(=O)c1ccc(F)c(F)c1)CC2(C)C [6-(3,4-Difluoro-benzoyl)-1,4,4-trimethyl-1,4,5,6-tetrahydro-pyrrolo[2,3-d]azepine-2,8-dicarboxylic acid 2-ethyl ester 8-isopropyl ester]
≤ 100 nM |  | CCOC(=O)c1cc2c([nH]1)C(C(=O)OC(C)C)=CN(C(=O)c1ccc(F)c(F)c1)CC2(C)C [6-(3,4-Difluoro-benzoyl)-4,4-dimethyl-1,4,5,6-tetrahydro-pyrrolo[2,3-d]azepine-2,8-dicarboxylic acid 2-ethyl ester 8-isopropyl ester]
≤ 100 nM |  | CCOC(=O)C1=CN(C(=O)c2ccc(F)c(F)c2)CC(C)(C)c2cc(C(=O)OCC)[nH]c21 [6-(3,4-Difluoro-benzoyl)-4,4-dimethyl-1,4,5,6-tetrahydro-pyrrolo[2,3-d]azepine-2,8-dicarboxylic acid diethyl ester]
≤ 100 nM |  | CCOC(=O)C1=CN(C(=O)c2ccc(F)c(F)c2)CC(C)(C)c2ccsc21 [6-(3,4-Difluoro-benzoyl)-4,4-dimethyl-5,6-dihydro-4H-thieno[2,3-d]azepine-8-carboxylic acid ethyl ester]
